Assay results: patent US11730795B2, “Pharmaceuticals and dosing means for human aging reversal” (INTERVENE IMMUNE, INC., priority 2017, dated 2023)

Key:
CD4/CD8 cell ratio = assay: TRIIM trial: CD4/CD8 cell ratio; assay type: in vivo, human; details: peak at 3, 6-9 or 12 months in different men; one non-responder
Text: (§1) Data variability was minimized and controlled by using each volunteer as their own control, and by standardizing the time and day of blood sampling. Blood was generally collected between 7 AM and 10 AM to avoid the effects of circadian and other temporal influences. In addition, patients standardized their pre-testing evening meal, used consistent testing sites and methods, and were redundantly tested between pre-established time points in some cases. All volunteers were asked to take supplements of 3000 IU vitamin D3 and 50 mg of elemental zinc daily. Further, volunteers were instructed not to consume food or alcohol within 4 hours of medication administration.
(§2) The initial dose of GH was 0.015 mg/kg, injected subcutaneously into superficial abdominal fat using a provided “pen” injector designed for this purpose. GH doses were varied over the time course described above so as to maximize IGF1, and were not adjusted for any changes in body weight.
The decline of CD4/CD8 cell ratio with aging is a classical indication of the “immune risk phenotype” or immunosenescence, and appears to occur with or without chronic viral exposure and has been a strong predictor of the short-term risk of death. Our results therefore indicate that prior art methods of regenerating the thymus require improvement. […]

insulin = assay type: in vivo, human; details: for control of GH-induced hyperinsulinemia by single agent: each agent alone with GH
Text: as §1, §2
Here, for context, insulin blood levels are expressed as a fraction of the distance from the bottom of the normal range to the top of the normal range. Although insulin control was not perfect, the final increase in insulin at trial end was acceptable based on volunteers averaging about one fifth of the upper limit for insulin. […] . Insulin and the normal insulin range were as reported by Quest Diagnostics.

epigenetic age = details: women, ref [35]; cited from earlier work
[1] = Tolerability of high metformin doses; assay type: in vivo, human
Method: We were able to use higher doses with minimal to no difficulty by devising the following dosing methods.
In these methods, “dinner” need not be taken literally, the essence of the concept being to essentially administer a large virtual dose by combining two smaller doses that are administered within an effective time span, which may be 1-5 hours in duration, but preferably 1-2 hours in duration, to reduce side effects such as gastric distress while still enabling increased control of hyperinsulinemia.

prostate = assay: Report of one individual: prostatic hypertrophy with DHEA; assay type: in vivo, human
Text: Accordingly, our results, methods, and medication compositions and combinations enable beneficial new treatments to improve human health and enable beneficial new drug indications.

[2] = 50 mg per day, 65-75 year old men, no GH, ref [46]; cited from earlier work
[3] = TRIIM trial: testosterone levels and benign prostatic hypertrophy under DHEA; details: with GH or GH plus metformin
Text: Nine normal, putatively healthy 50-65 year-old male volunteers with normal age-related thymic involution were enrolled in and completed a clinical study performed under an IND from the US Food and Drug Administration and separate supervision from a California Institutional Review Board. […] The TRIIM trial (standing for Thymus Regeneration, Immunorestoration, and Insulin Mitigation) treatment period was limited to 12 months. Exclusion criteria included GH use in the prior 10 years, carpal tunnel syndrome, malignancies or high risk of malignancy, BMI greater than 30, PSA above the age-adjusted range, symptomatic prostatic hypertrophy, unstable metabolic disorders, unstable cardiovascular disorders, elevated levels of inflammatory markers, alcoholism, allergy to study medications, cognitive impairment, abnormal metabolic or hormonal results, existing type 1 or type 2 diabetes, or other unstable medical conditions.

Compound | course of CD4/CD8 cell ratio (CD4/CD8 cell ratio) | insulin level with GH alone (insulin; in vivo) | effect on epigenetic aging (epigenetic age) | tolerability ([1]; 500 mg with dinner plus 1000 mg with HGH and DHEA, total 1500 mg) | tolerability ([1]; 1500 mg at dinner plus 1000 mg with DHEA and HGH at bedtime, 2500 mg) | tolerability ([1]; 1500 or 2000 mg in one dose with GH at bedtime) | control of GH-induced hyperinsulinemia (insulin; 850-1200 mg metformin, morning after GH dose, even with DHEA) | control of GH-induced hyperinsulinemia by single agent (insulin) | prostatic hypertrophy (prostate; DHEA alone or in combination with metformin) | prostatic hypertrophy (prostate; DHEA in combination with both metformin and GH) | glucose tolerance [2] | raising of testosterone levels ([3]; doses up to 200 mg) | induction of benign prostatic hypertrophy [3]
human growth hormone [GH] | peaks in the face of a constant or an increasing dose of GH or rise in IGF-1, and thereafter declines | rise in insulin |  |  |  |  |  |  |  |  |  |  | 
CN(C)C(=N)N=C(N)N [metformin] |  |  | not shown to either slow or reverse epigenetic aging | universally well tolerated | well tolerated | well tolerated | very insufficient | neither agent alone was sufficient |  |  |  |  | 
C[C@]12CC[C@H](O)CC1=CC[C@@H]1[C@@H]2CC[C@]2(C)C(=O)CC[C@@H]12 [DHEA, dehydroepiandrosterone] |  |  |  |  |  |  |  | neither agent alone was sufficient | caused immediate and significant prostatic hypertrophy | actually reversed | improve glucose tolerance | not found | not found
